Among the data in US8343990B2, “Substituted cyclopropyl compounds, compositions containing such compounds and methods of treatment” (Merck Sharp & Dohme Corp., priority 2008, dated 2013) are EC50 values, retold here.

Some results are limits rather than exact numbers.

The experiment addresses T1, GPR119 receptor (UniProt Q8TDV5, S309L, species not given).
T1 sequence (Q8TDV5 1-335 S309L): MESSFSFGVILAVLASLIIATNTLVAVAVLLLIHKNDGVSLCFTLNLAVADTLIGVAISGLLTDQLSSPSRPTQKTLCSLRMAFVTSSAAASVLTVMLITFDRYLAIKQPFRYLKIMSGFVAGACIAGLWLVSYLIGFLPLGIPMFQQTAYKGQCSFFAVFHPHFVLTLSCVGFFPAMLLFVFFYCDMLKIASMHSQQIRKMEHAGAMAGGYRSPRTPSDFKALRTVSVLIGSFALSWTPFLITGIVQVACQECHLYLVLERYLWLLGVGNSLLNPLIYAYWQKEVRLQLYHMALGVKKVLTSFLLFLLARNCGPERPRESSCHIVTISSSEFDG
As to the kind of experiment: GPR119 signaling, cyclic AMP (cAMP) homogenous time resolved fluorescence (HTRF) assay. In kind it is cell-based. As to conditions: CHO cells with Gα15 and murine GPR119, or HEK293 Flp-In cells with human GPR119 S309L; table does not say which; read-out: Activity: inflection points, denoted as EC50 values (agonist activation of GPR119, cAMP). The text has this: Measurement of GPR119 Signaling Using a Cyclic AMP (cAMP) Homogenous Time Resolved Fluorescence (HTRF) Assay
Chinese hamster ovary (CHO) cell lines stably transfected with the permissive guanine nucleotide binding protein alpha 15 (Gα15) and […] GPR119 were maintained in DMEM media containing FBS, penicillin-streptomycin, puromycin, and G418 (geneticin). Alternatively, human embryonic kidney (HEK)293 Flp-In cells (Invitrogen, Carlsbad, Calif.) were stably transfected with a human SNP variant (S309L) of GPR119 and maintained in DMEM media containing FBS, penicillin-streptomycin, and hygromycin. Agonist activation of the GPR119 receptor was measured in receptor transfected cells described above, treated with compounds of this invention, using a commercial homogenous time resolved fluorescence (HTRF) kit for measurement of cAMP (CisBio, Bedford, Mass.). The assay was performed in 96-well half-volume plates (murine) or 384-well plates (human) following the manufacturers instructions. Briefly, suspended cells were incubated with a dose titration of test compound at room temperature for 60 min, lysed, and incubated with HTRF reagents for an additional 60 min. The plate was read using an Envision multilabel reader (Perkin Elmer) adjusted to read time resolved fluorescence and the cAMP concentrations were extrapolated from a cAMP calibration curve. […] The concentration of test compound required to stimulate a half-maximal response (EC50), and efficacy as compared to an internal agonist control, was determined from a sigmoidal 4-parameter curve fit of the resulting plot of normalized activity versus compound concentration.
A general note: In TR-FRET formats the signal depends on donor and acceptor labels being close together.
With `Cc1cnc(N2CCC(C3CC3CCOc3cc(C#N)nc(C)n3)CC2)nc1` (single isomer, unassigned) [Ex 39, Chiral-cis-2-methyl-6-(2-{2-[1-(5-methylpyrimidin-2-yl)piperidin-4-yl]cyclopropyl}ethoxy)pyrimidine-4-carbonitrile], the EC50 was less than 10 nM.
For `Clc1cnc(N2CCC(C3CC3CCOc3ccc(-n4cnnn4)cc3)CC2)nc1` (single isomer, unassigned) [Ex 83cS, cis-5-chloro-2-[4-(2-{2-[4-(1H-tetrazol-1-yl)phenoxy]ethyl}cyclopropyl)piperidin-1-yl]pyrimidine], the EC50 is less than 10 nM.
Under `Clc1cnc(N2CCC(C3CC3CCOc3ccc(-c4ccn[nH]4)cc3)CC2)nc1` (racemic) [Ex 22, rac cis-5-chloro-2-[4-(2-{2-[4-(1H-pyrazol-3-yl)phenoxy]ethy]}cyclopropyl)piperidin-1-yl]pyrimidine] stands 10 to 50 nM; under `Clc1cnc(N2CCC(C3CC3CCOc3ccc(-n4ncnn4)cc3)CC2)nc1` (racemic) [Ex 31, rac cis-5-chloro-2-[4-(2-{2-[4-(2H-tetrazol-2-yl)phenoxy]ethyl}cyclopropyl)piperidin-1-yl]pyrimidine], 10 to 50 nM; under `Cc1nc(C#N)cc(OCC[C@@H]2C[C@@H]2C2CCN(c3ncc(Cl)c(C)n3)CC2)n1` (racemic) [Ex 42, Rac-cis-6-(2-{2-[1-(5-chloro-4-methylpyrimidin-2-yl)piperidin-4-yl]cyclopropyl}ethoxy)-2-methylpyrimidine-4-carbonitrile], less than 10 nM.
Consider `Clc1cnc(N2CCC(C3CC3CCOc3ccc(-c4ccno4)cc3)CC2)nc1` (racemic) [Ex 21, rac cis-5-chloro-2-(4-{2-[2-(4-isoxazol-5-ylphenoxy)ethyl]cyclopropyl}piperidin-1-yl)pyrimidine], for which the EC50 fell in the range of 10 to 50 nM.
`Cc1cnc(N2CCC([C@H]3C[C@H]3CCOc3cc(C)nc(C)n3)CC2)nc1` (racemic) [Ex 41, Rac-cis-2,4-dimethyl-6-(2-{2-[1-(5-methylpyrimidin-2-yl)piperidin-4-yl]cyclopropyl}ethoxy)pyrimidine]: the EC50 lay within 10 to 50 nM.
On to `N#Cc1ccc(OC[C@@H]2C[C@H]2CC2CCN(c3ncc(Cl)cn3)CC2)cc1F` (racemic) [Ex 104, Rac-trans-4-[(2-{[1-(5-chloropyrimidin-2-yl)piperidin-4-yl]methyl}cyclopropyl)methoxy]-2-fluorobenzonitrile], for which the EC50 was in the range of 50 to 200 nM.
`N#Cc1ccc(OCCC2CC2C2CCN(c3ncc(Cl)cn3)CC2)cc1F` (racemic) [Ex 12, rac cis-4-(2-{2-[1-(5-chloropyrimidin-2-yl)piperidin-4-yl)cyclopropyl}ethoxy)-2-fluorobenzonitrile]: the half-maximal effective concentration (EC50) was in the range of 10 to 50 nM.
Under `Fc1cc(OCC[C@H]2C[C@@H]2C2CCN(c3ncc(Cl)cn3)CC2)ccc1-c1nnc(C2CC2)o1` [Ex 97, 5-chloro-2-[4-((1R,2R)-2-{2-[4-(5-cyclopropyl-1,3,4-oxadiazol-2-yl)-3-fluorophenoxy]ethyl}cyclopropyl)piperidin-1-yl]pyrimidine] stands 10 to 50 nM.
As for `Clc1cnc(N2CCC([C@@H]3C[C@@H]3CCOc3cccnc3)CC2)nc1` (racemic) [Ex 48, Rac-cis-5-chloro-2-(4-{2-[2-(pyridin-3-yloxy)ethyl]cyclopropyl}piperidin-1-yl)pyrimidine], the EC50 was greater than 200 nM.
For the compound `N#Cc1ccc(OC[C@@H]2C[C@@H]2CC2CCN(c3ncc(Cl)cn3)CC2)cc1F` (racemic) [Ex 119, rac-cis 4-[(2-{[1-(5-chloropyrimidin-2-yl)piperidin-4-yl]methyl}cyclopropyl)methoxy]-2-fluorobenzonitrile], the EC50 was greater than 200 nM.
The value for `Clc1cnc(N2CCC(C3CC3CCOc3ccc(-c4ncon4)cc3)CC2)nc1` (racemic) [Ex 17, rac cis-5-chloro-2-[4-(2-{2-[4-(1,2,4-oxadiazol-3-yl)phenoxy]ethyl}cyclopropyl)piperidin-1-yl]pyrimidine] was 50 to 200 nM.
Regarding `O=C(NC1CC1)c1ccc(OCCC2CC2C2CCN(c3ncc(Cl)cn3)CC2)cc1F` (racemic) [Ex 11, rac cis-4-(2-{2-[1-(5-chloropyrimidin-2-yl)piperidin-4-yl]cyclopropyl}ethoxy)-N-cyclopropyl-2-fluorobenzamide], the EC50 was less than 10 nM.
As to `N#Cc1cncc(OCC[C@@H]2C[C@@H]2C2CCN(c3ncc(Cl)cn3)CC2)c1` (racemic) [Ex 50, Rac-cis-5-(2-{2-[1-(5-chloropyrimidin-2-yl)piperidin-4-yl]cyclopropyl}ethoxy)nicotinonitrile], the EC50 lay in the range of 50 to 200 nM.
On to `Cc1nnc(-c2ccc(OCC[C@H]3C[C@H]3C3CCN(c4ncccn4)CC3)cc2F)o1` (racemic) [Ex 85, Rac-cis-2-[4-(2-{2-[3-fluoro-4-(5-methyl-1,3,4-oxadiazol-2-yl)phenoxy]ethyl}cyclopropyl)piperidin-1-yl]pyrimidine], for which the EC50 is less than 10 nM.
Under `CS(=O)(=O)c1ccc(OC[C@H]2C[C@H]2CC2CCN(c3ncc(Cl)cn3)CC2)cc1` (racemic) [Ex 116, rac-cis-5-chloro-2-{-4-[(2-{[4-(methylsulfonyl)phenoxy]methyl}cyclopropyl)methyl]piperidin-1-yl}pyrimidine] stands greater than 200 nM.
In the case of `Cc1nnnn1-c1ccc(OCCC2CC2C2CCN(c3ncc(Cl)cn3)CC2)cc1` (racemic) [Ex 31b, rac cis-5-chloro-2-[4-(2-{2-[4-(5-methyl-1H-tetrazol-1-yl)phenoxy]ethyl}cyclopropyl)piperidin-1-yl]pyrimidine], the EC50 is 10 to 50 nM.
Under `O=S(=O)(c1ccc(OCCC2CC2C2CCN(c3ncc(Cl)cn3)CC2)cc1)C1CC1` (racemic) [Ex 13, rac cis-5-chloro-2-[4-(2-{2-[4-(cyclopropylsulfonyl)phenoxy]ethyl}cyclopropyl)piperidin-1-yl]pyrimidine] stands 10 to 50 nM; under `Cc1nc(C#N)cc(OCCC2CC2C2CCN(c3ncc(Cl)cn3)CC2)n1` (racemic) [Ex 100, rac trans 6-(2-{2-[1-(5-chloropyrimidin-2-yl)piperidin-4-yl]cyclopropyl}ethoxy)-2-methylpyrimidine-4-carbonitrile], 10 to 50 nM.
Take `Cc1cc(OCC[C@@H]2C[C@H]2C2CCN(c3ncc(Cl)cn3)CC2)nc(C#N)n1` (racemic) [Ex 99, rac-trans-4-{2-{2-[1-(5-chloropyrimidin-2-yl)piperidin-4-yl]cyclopropyl}ethoxy)-6-methylpyrimidine-2-carbonitrile]: the EC50 is 10 to 50 nM.
The value for `Cc1nnc(-c2ccc(OCCC3CC3C3CCN(c4ncc(F)cn4)CC3)cc2F)o1` (single isomer, unassigned) [Ex 83eS, cis-5-fluoro-2-[4-(2-{2-[3-fluoro-4-(5-methyl-1,3,4-oxadiazol-2-yl)phenoxy]ethyl}cyclopropyl)piperidin-1-yl]pyrimidine] was less than 10 nM.
In the case of `CS(=O)(=O)c1ccc(OC[C@H]2C[C@@H]2CC2CCN(c3ncc(Cl)cn3)CC2)cc1` [Ex 103, 5-chloro-2-{4-[((1S,2S)-2-{[4-(methylsulfonyl)phenoxy]methyl}cyclopropyl)methyl]piperidin-1-yl}pyrimidine], the EC50 fell in the range of 10 to 50 nM.
Consider `Fc1cnc(N2CCC(C3CC3CCOc3ccc(-n4cnnn4)c(F)c3)CC2)nc1` (racemic) [Ex 30d], for which the EC50 is less than 10 nM.

What is called EC50 is the concentration giving half of the maximal effect.
